Test results as given in patent US7256268B1, “Human high affinity choline transporter” (University of Florida Research Foundation, priority 2000, dated 2007).

Key:
[1] = system: low affinity choline transporter, LACT; details: synaptosome preparations; cited from earlier work
human HACT = target: T1, human HACT (Homo sapiens, UniProt Q9GZV3); assay: transporter assay for high affinity choline uptake (tritiated choline chloride) in transfected or infected cells; assay type: cell-based; details: 10 nM of Hemicholinium-3; cells expressing recombinant human HACT (FIG. 1: SF9 cells), 27° C., 30 min
T1 construct: expressed in transfected cells; host or cells: 293, HELA and SF9 cells (pcDNA, AAV proviral and baculoviral vectors)
T1 sequence (Q9GZV3 1-580): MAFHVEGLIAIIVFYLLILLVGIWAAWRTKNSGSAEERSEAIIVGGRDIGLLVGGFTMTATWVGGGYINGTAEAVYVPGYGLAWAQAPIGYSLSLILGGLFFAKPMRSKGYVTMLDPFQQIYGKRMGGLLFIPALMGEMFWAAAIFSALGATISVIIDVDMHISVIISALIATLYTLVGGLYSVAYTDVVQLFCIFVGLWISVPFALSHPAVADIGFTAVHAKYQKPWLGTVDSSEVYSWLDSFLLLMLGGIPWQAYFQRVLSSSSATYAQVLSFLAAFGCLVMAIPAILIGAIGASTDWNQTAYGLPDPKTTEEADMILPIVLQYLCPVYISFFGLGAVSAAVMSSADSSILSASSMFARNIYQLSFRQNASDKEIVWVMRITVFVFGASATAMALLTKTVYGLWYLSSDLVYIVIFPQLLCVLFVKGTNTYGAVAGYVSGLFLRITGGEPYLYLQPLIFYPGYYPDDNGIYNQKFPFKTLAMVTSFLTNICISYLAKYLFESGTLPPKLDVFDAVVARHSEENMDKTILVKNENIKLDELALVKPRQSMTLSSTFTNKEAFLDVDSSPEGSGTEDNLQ
Method: A transporter assay for high affinity choline uptake was carried out using 293, HELA, and SF9 cells that had been transfected or infected with expression vectors (several eukaryotic expression vectors including pcDNA, AAV proviral vector, and Baculoviral vectors were used) either with or without a cDNA encoding human HACT. Briefly, 2×10^5 cells were incubated with tritiated choline chloride and various amounts of Hemicholinium-3 in 500 microliter media (20 mM HEPES, pH 7.4, 140 mM NaCl, 4 mM KCl, 1 mM MgCl2, 1 mM CaCl2) at 27° C. for 30 min in each transporter assay. The cells were then pelleted and washed three times before they were solublized in 1N NaOH and the tritium content determined by liquid scintillation counting. […] Furthermore, the HACT activity was sensitive to 10 nM of Hemicholinium-3, which is characteristic of high affinity choline transporter. See e.g. Okuda et al. Nat. Neurosci. 3:120-5 (2000).

C[N+]1(C)CCOC(O)(c2ccc(-c3ccc(C4(O)C[N+](C)(C)CCO4)cc3)cc2)C1.[Br-].[Br-] (centres unmarked) [hemicholinium-3]
sensitivity of the low affinity uptake system to hemicholinium-3 [1]: insensitive
sensitivity of HACT activity to Hemicholinium-3 (human HACT): sensitive
